These results are taken from patent publication US20100221773A1, “Nucleic Acids Encoding a Functional Mammalin Purinoreceptor, P2X3, Methods of Production and Use Thereof” (priority 2005, published 2010).

Test [1] addresses T1, rhesus P2X3 receptor (Macaca mulatta, UniProt A0A1D5QSM7). Nature of the test: Intracellular calcium measurement (FLIPR, Fluo-3) to assess antagonist affinity. Type of test: cell-based. The conditions noted are these: for IC50: FLIPR, Flp-in T-Rex-293 cells stably expressing rhesus P2X3, antagonist 10 min before agonist αβ-meATP, read-out: IC50, block of αβ-meATP mediated increase in intracellular calcium. As to the method: (§1) Generation of a Rhesus P2X3 Stable Cell Line—Rhesus P2X3 receptor cDNA was subcloned as a 5′HindIII and 3′XhoI fragment into the expression vector pcDNA5/FRT/TO (Invitrogen). Five micrograms of the rhesus P2X3 expression construct was transfected using Lipofectamine 2000 (Invitrogen) into Flp-in T-Rex—293 cells (Invitrogen) according to the manufacturer's directions. Cells positive for flp-mediated recombination of rhesus P2X3 were selected using 300 μg/ml hygromycin. The stable rhesus P2X3 cell line was propagated in DMEM, 10% FBS, 150 μg/ml hygromycin, 15 μg/ml blasticidin, and 100 units/ml penicillin and 100 μg/ml streptomycin, and maintained at 37° and 95% humidity. Cells were subcultured by treatment with 0.25% trypsin with 0.1% EDTA in HBSS.
Intracellular Calcium Measurement to Assess Antagonist Affinity—A fluorescent imaging plate reader (FLIPR; Molecular Devices) was used to monitor intracellular calcium levels using the calcium-chelating dye Fluo-3 (Molecular Probes). Cells expressing the rhesus P2X3 receptor were plated in the presence of 0.5 to 1 μg/ml doxycycline at a density of 30,000 cells/well in 384-well black-walled plates approximately 20 hours before beginning the assay. Cells were washed with HBSS and dye-loaded in HBSS, 2 mM CaCl2, 0.1% BSA, 0.25 mM probenecid, and 4 μM Fluo-3 for 60 min in the dark at room temperature. Prior to compound additions cells were washed with HBSS. Antagonist affinity was determined by the ability of these compounds to inhibit increases of intracellular calcium elicited by the P2X3 agonist αβ-meATP. Ten minutes prior to adding agonist, the antagonist was added and allowed to incubate at room temperature. Following agonist addition fluorescence data was collected at 5 sec intervals and analyzed based on the increase in peak relative fluorescence units (RFU) compared to the basal fluorescence. Antagonist dose-response data expressed as a response ratio (max RFU/min RFU) were analyzed using GraphPad Prism.

Test [2] has as its target T1, rhesus P2X3 receptor. Nature of the test: In vitro electrophysiological assay (whole-cell patch clamp, PatchXpress). Type of test: cell-based. As to conditions: for IC50: 100 μM CTP, antagonist preincubation 2 min, whole-cell patch clamp, read-out: IC50, inhibition of CTP-induced currents. The procedure:
as §1
In vitro Electrophysiological Assay—Cells expressing rhesus P2X3 receptor were grown to a confluence of 65-85% and induced with 1 μg/ml doxycycline 20 to 32 hours prior to assay. After induction the cells were dissociated with trypsin, centrifuged, and resuspended in bath solution at a cell density of 6×10^6 cells/ml and loaded onto PatchXpress. The bath solution contained 150 mM NaCl, 4 mM KCl, 2 mM CaCl2, 1.2 mM MgCl2, 10 mM HEPES, and 11.1 mM glucose, at pH 7.2. The intracellular solution contained 140 mM K-aspartate, 20 mM NaCl, 5 mM HEPES, 10 mM EGTA, at pH 7.2. Agonist stock solutions were prepared in H2O and diluted in bath solution prior to use. All antagonists were prepared as 10 mM stock solutions in DMSO and diluted in bath solution prior to use. All experiments were performed on cells under the whole-cell patch clamp configuration at room temperature. Up to 16 individual cells could be patch clamped simultaneously on the PatchXpress instrument. A baseline response was established by repeated CTP (100 μM; for 2 sec.) followed by antagonist incubation for 2 min. in the absence of CTP. After antagonist preincubation 100 μM CTP and antagonist were co-administered to determine the inhibitory effect of the antagonist. These steps were then repeated on the same cell with a range of concentrations of the antagonist. A maximum of five concentrations of antagonist were tested on any individual cell. The control P2X3 current amplitude (IP2X3-(control)) was taken as an average of the peak current amplitude from the last two agonist additions prior to incubation with an antagonist. The peak P2X3 current amplitude in the presence of an antagonist (IP2X3-(drug)) was used to calculate the inhibitory effect at each concentration of the antagonist according to the following equation:
% inhibition of P2X3=100*(IP2X3-(control)−IP2X3-(drug))/IP2X3-(control)
Each concentration of an antagonist was tested on at least three independent cells. […]

As for `Cc1nc(N=Nc2ccc(S(=O)(=O)O)cc2S(=O)(=O)O)c(COP(=O)(O)O)c(C=O)c1O` [PPADS, pyridoxal-phoshpate-6-azophenyl-2′,4′-disulfonic acid], the “blockade of αβ-meATP activated Ca2+ influx” value in test [1] (FIG. 1, cells incubated with PPADS for 10 min prior to agonist, FLIPR traces) is on record as “dose-dependent blockade”. Moreover, the IC50 was 2900 nM in test [1] and 2200 nM in test [2] (FIG. 3). Moreover, in test [2] (FIG. 3A, 3 μM PPADS, 100 mM CTP (control) as printed), the “rhesus P2X3 inward current elicited by CTP in the presence of antagonist” value is reported as “diminished”.
As to `Nc1ncnc2c1ncn2[C@@H]1O[C@H](COP(=O)(O)CP(=O)(O)OP(=O)(O)O)[C@@H](O)[C@H]1O` [αβ-meATP], the concentration for a half-maximal effect (EC50) in test [2] (patch-clamp, rhesus P2X3 stable cell line, FIG. 2, read-out: EC50, inward current evoked by agonist) came out at 1000 nM.
Take `Cc1ccc(C(=O)Nc2ccc(S(=O)(=O)O)c3cc(S(=O)(=O)O)cc(S(=O)(=O)O)c23)cc1NC(=O)c1cccc(NC(=O)Nc2cccc(C(=O)Nc3cc(C(=O)Nc4ccc(S(=O)(=O)O)c5cc(S(=O)(=O)O)cc(S(=O)(=O)O)c45)ccc3C)c2)c1` [suramin]: the values for the half-maximal inhibitory concentration (IC50) in test [1] and in test [2] were 1500 nM and 382 nM, respectively.
